From EP0609518A1, “Optically active aminopyridine derivative and use thereof” (THE GREEN CROSS CORPORATION, priority 1992, dated 1994)

Columns and labels:
[1] = system: male spontaneously hypertensive rat; test: Antihypertensive action (systolic pressure by tail-cuff method); format: in vivo; conditions: 3 mg/kg p.o., dissolved in brine, at 1 hour from the oral administration
Protocol: The compound (hydrochloride) of the present invention obtained in Example 1 was dissolved in brine, and forcibly administered (p.o.) to male spontaneously hypertensive rat at 3 mg/kg. The systolic pressure was measured with a programmable sphygmonanometer (PS-200A, manufactured by Riken Kaihatsu, Japan) by tail-cuff method [Ohkubo H et al. Proc. Natl. Acad. Sci. USA, 87, 5153-5157 (1990)].

[2] = system: rat; test: Toxicity by single administration to rat; format: in vivo; conditions: single administration of 450 mg/kg to rat
From the text: Toxicity by single administration to rat

Question: With `Cl.N#CN=C(Nc1ccc(N)nc1)N[C@@H]1C[C@@H]2CC[C@H]1C2` [hydrochloride of (+)-N-(6-amino-3-pyridyl)-N''-cyano-N'-[(1S] [hydrochloride of (+)-N-(6-amino-3-pyridyl)-N''-cyano-N'-[(1S,2R,4R)-2-norbornyl]guanidine] as the compound, how does the vasodepressor action [1] read?
Answer: 33%

Question: And the death case [2]?
Answer: did not result in a death case
